molecular target: T1, EGFR (Homo sapiens, UniProt P00533); assay: EGFR Kinase Assay; format: biochemical; settings: GST-EGFR intracellular portion, 5 μM ATP
T1 construct: The intracellular portion of EGFR started at nucleotide 2189 (corresponding to amino acid 667) and ended at the termination codon; made in house; host or cells: Sf9 insect cells (baculovirus)
Source text: The EGFR kinase used was a fusion of Glutathione-S-Transferase (GST) and a PCR amplified intracellular portion of EGFR (NM_005228). The intracellular portion of EGFR started at nucleotide 2189 (corresponding to amino acid 667) and ended at the termination codon. The portion was PCR amplified with primers that added the lambda attB sequences to each end, recombined into an entry vector, then into a GST destination vector (as described in Gateway Technologies Manual by Invitrogen Corporation, Carlsbad, Calif.).
The destination vector was recombined in the DH10BAC strain of bacteria to produce a bacmid. The bacmid was transfected into Sf 9 cells and the supernatant containing the baculovirus was collected. The GSTEGFR protein was purified using large cultures of Sf 9 cells infected with stock virus. After an appropriate period of time, the cells were collected and lysed. The GSTEGFR was then purified from the lysate on Glutathione-Sepharose columns (as described by Amersham Biosciences, Buckinghamshire, United Kingdom).
The EGFR substrate was prepared by biotinylating polyGluTyr (128 mg) (Sigma, St. Louis, Mo.) in a 1×PBS buffer incubated together with a 12-fold molar excess of Sulfo-NHS-LC-Biotin on ice for at least 2 hrs. The free biotin was separated from the biotinylated polyGluTyr on a gel filtration column.
A mixture of a 10× kinase buffer (500 mM Tris at pH 8.0, 100 mM Magnesium Chloride and 1 mM Sodium Vanadate), DTT (1 mM final from 500 mM stock), ATP (5 μM final from 10 mM stock), biotinylated polyGluTyr (10 μg/μL stock), γ-^33P ATP (10 μCi/μL stock) and water was added to each well (90 μL/well) of a Streptavidin Flashplate (Perkin Elmer, Wellesley, M A).
Test compound in 100% DMSO (2 μL) was added to the appropriate wells. Diluted GSTEGFR (1:300 dilution in 50 mM Tris at pH 8.0 and 0.1% bovine serum albumin) (10 μL) was added to the wells to initiate the reactions.
The plates were incubated at 30° C. for 1 hr with shaking. The reacted contents were removed and the plates were sequentially washed three times with a 1×PBS stop buffer (300 μL without Magnesium and Calcium) and 100 mM EDTA. After the final wash, the same stop buffer (200 μL) was added to the wells. The plates were then sealed and read on the TopCount scintillation counter.
Test compounds were assayed in triplicate at 16 concentrations at half-log dilutions starting at 200 uM. A maximum and minimum signal for the assay was determined on each plate. The percent inhibition of a test compound was calculated according to the formula
For a series of test concentrations, the IC50 was derived by graphing percent inhibition against the log of the concentrations tested for a given compound. For those compounds without an IC50, the percent inhibition results are shown at a test concentration of 2 μM.

T1 sequence (P00533 669-1210 limits assumed): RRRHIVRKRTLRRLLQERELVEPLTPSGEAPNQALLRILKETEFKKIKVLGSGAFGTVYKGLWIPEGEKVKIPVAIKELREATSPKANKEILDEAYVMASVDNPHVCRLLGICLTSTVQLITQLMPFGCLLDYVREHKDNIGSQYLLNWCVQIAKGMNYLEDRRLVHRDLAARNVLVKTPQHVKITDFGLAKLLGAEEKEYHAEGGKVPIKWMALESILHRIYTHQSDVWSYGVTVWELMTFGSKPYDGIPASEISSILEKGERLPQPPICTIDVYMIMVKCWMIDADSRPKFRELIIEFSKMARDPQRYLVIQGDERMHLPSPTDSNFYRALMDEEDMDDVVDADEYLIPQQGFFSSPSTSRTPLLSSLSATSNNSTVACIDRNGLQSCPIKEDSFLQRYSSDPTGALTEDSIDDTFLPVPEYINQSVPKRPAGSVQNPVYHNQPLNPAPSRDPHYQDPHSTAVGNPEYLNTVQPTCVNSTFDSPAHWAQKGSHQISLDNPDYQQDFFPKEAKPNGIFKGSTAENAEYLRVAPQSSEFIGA

| SMILES | IC50 |
| --- | --- |
| Nc1c(C(=O)Nc2ccc(CN3CCOCC3)cc2)sc2ncnc(Nc3ccc(F)c(Cl)c3)c12 [Cpd 2, 5-amino-4-(3-chloro-4-fluoro-phenylamino)-thieno[2,3-d]pyrimidine-6-carboxylic acid (4-morpholin-4-ylmethyl-phenyl)-amide] | 0.086 nM |
| Nc1c(C(=O)NCCN2CCOCC2)sc2ncnc(Nc3ccc(F)c(Cl)c3)c12 [Cpd 4, 5-amino-4-(3-chloro-4-fluoro-phenylamino)-thieno[2,3-d]pyrimidine-6-carboxylic acid (2-morpholin-4-yl-ethyl)-amide] | 0.606 nM |
| CN(C)CCCNS(=O)(=O)c1ccc(NC(=O)c2sc3ncnc(Nc4ccc(F)c(Cl)c4)c3c2N)cc1 [Cpd 5, 5-amino-4-(3-chloro-4-fluoro-phenylamino)-thieno[2,3-d]pyrimidine-6-carboxylic acid [4-(3-dimethylamino-propylsulfamoyl)-phenyl]-amide] | 0.043 nM |
| COc1ccc(CNC(=O)c2sc3ncnc(Nc4ccc(F)c(Cl)c4)c3c2N)cc1OC [Cpd 11, 5-amino-4-(3-chloro-4-fluoro-phenylamino)-thieno[2,3-d]pyrimidine-6-carboxylic acid 3,4-dimethoxy-benzylamide] | 0.177 nM |
| COc1ccc(CCNC(=O)c2sc3ncnc(Nc4ccc(F)c(Cl)c4)c3c2N)cc1OC [Cpd 12, 5-amino-4-(3-chloro-4-fluoro-phenylamino)-thieno[2,3-d]pyrimidine-6-carboxylic acid [2-(3,4-dimethoxy-phenyl)-ethyl]-amide] | 0.22 nM |
| Nc1c(C(=O)Nc2ccc(CN3CCCCC3)cc2)sc2ncnc(Nc3ccc(F)c(Cl)c3)c12 [Cpd 13, 5-amino-4-(3-chloro-4-fluoro-phenylamino)-thieno[2,3-d]pyrimidine-6-carboxylic acid (4-piperidin-1-ylmethyl-phenyl)-amide] | 0.053 nM |
| CN(CCc1ccc(NC(=O)c2sc3ncnc(Nc4ccc(F)c(Cl)c4)c3c2N)cc1)C1CCOCC1 [Cpd 15, 5-amino-4-(3-chloro-4-fluoro-phenylamino)-thieno[2,3-d]pyrimidine-6-carboxylic acid (4-{2-[methyl-(tetrahydro-pyran-4-yl)-amino]-ethyl}-phenyl)-amide] | 0.064 nM |
| CN(Cc1ccc(NC(=O)c2sc3ncnc(Nc4ccc(F)c(Cl)c4)c3c2N)cc1)C[C@H]1CCCO1 [Cpd 16, 5-amino-4-(3-chloro-4-fluoro-phenylamino)-thieno[2,3-d]pyrimidine-6-carboxylic acid [4-({methyl-[(2R)-tetrahydro-furan-2-ylmethyl]-amino}-methyl)-phenyl]-amide] | 0.035 nM |
| CN(Cc1ccc(NC(=O)c2sc3ncnc(Nc4ccc(F)c(Cl)c4)c3c2N)cc1)C[C@@H]1CCCO1 [Cpd 17, 5-amino-4-(3-chloro-4-fluoro-phenylamino)-thieno[2,3-d]pyrimidine-6-carboxylic acid [4-({methyl-[(2S)-tetrahydro-furan-2-ylmethyl]-amino}-methyl)-phenyl]-amide] | 0.062 nM |

Further lines, results first:

| IC50 | SMILES |
| --- | --- |
| 0.239 nM | COc1ccc(NC(=O)c2sc3ncnc(Nc4ccc(F)c(Cl)c4)c3c2N)cc1 [Cpd 1, 5-amino-4-(3-chloro-4-fluoro-phenylamino)-thieno[2,3-d]pyrimidine-6-carboxylic acid (4-methoxy-phenyl)-amide] |
| 0.109 nM | COc1ccc(NC(=O)c2sc3ncnc(Nc4ccc(F)c(Cl)c4)c3c2N)cc1OC [Cpd 3, 5-amino-4-(3-chloro-4-fluoro-phenylamino)-thieno[2,3-d]pyrimidine-6-carboxylic acid (3,4-dimethoxy-phenyl)-amide] |
| 0.741 nM | Nc1c(C(=O)Nc2ccc(Oc3ccccc3)cc2)sc2ncnc(Nc3ccc(F)c(Cl)c3)c12 [Cpd 6, 5-amino-4-(3-chloro-4-fluoro-phenylamino)-thieno[2,3-d]pyrimidine-6-carboxylic acid (4-phenoxy-phenyl)-amide] |
| 0.598 nM | Nc1c(C(=O)Nc2ccc(OC(F)(F)F)cc2)sc2ncnc(Nc3ccc(F)c(Cl)c3)c12 [Cpd 7, 5-amino-4-(3-chloro-4-fluoro-phenylamino)-thieno[2,3-d]pyrimidine-6-carboxylic acid (4-trifluoromethoxy-phenyl)-amide] |
| 0.14 nM | CC(C)Oc1ccc(NC(=O)c2sc3ncnc(Nc4ccc(F)c(Cl)c4)c3c2N)cc1 [Cpd 8, 5-amino-4-(3-chloro-4-fluoro-phenylamino)-thieno[2,3-d]pyrimidine-6-carboxylic acid (4-isopropoxy-phenyl)-amide] |
| 0.147 nM | COc1ccc(NC(=O)c2sc3ncnc(Nc4ccc(F)c(Cl)c4)c3c2N)cn1 [Cpd 9, 5-amino-4-(3-chloro-4-fluoro-phenylamino)-thieno[2,3-d]pyrimidine-6-carboxylic acid (6-methoxy-pyridin-3-yl)-amide] |
| 0.196 nM | Nc1c(C(=O)Nc2ccc(N3CCOCC3)cc2)sc2ncnc(Nc3ccc(F)c(Cl)c3)c12 [Cpd 10, 5-amino-4-(3-chloro-4-fluoro-phenylamino)-thieno[2,3-d]pyrimidine-6-carboxylic acid (4-morpholin-4-yl-phenyl)-amide] |
| 0.034 nM | CN(C)Cc1ccc(NC(=O)c2sc3ncnc(Nc4ccc(F)c(Cl)c4)c3c2N)cc1 [Cpd 14, 5-amino-4-(3-chloro-4-fluoro-phenylamino)-thieno[2,3-d]pyrimidine-6-carboxylic acid (4-dimethylaminomethyl-phenyl)-amide] |
| 0.067 nM | CN1CCN(Cc2ccc(NC(=O)c3sc4ncnc(Nc5ccc(F)c(Cl)c5)c4c3N)cc2)CC1 [Cpd 18, 5-amino-4-(3-chloro-4-fluoro-phenylamino)-thieno[2,3-d]pyrimidine-6-carboxylic acid [4-(4-methyl-piperazin-1-ylmethyl)-phenyl]-amide] |
